What all share (format): biochemical
In assay [1] the target is T1, IAPP (Homo sapiens, UniProt P10997).
T1 sequence (P10997 34-70 limits assumed): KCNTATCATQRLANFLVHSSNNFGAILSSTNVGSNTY
The assay is described as follows: Circular dichroism analysis of β-sheet conformation (Example 2). Details: add 10 μL of 10 mg/mL IAPP stock solution (final 100 μg peptide). As to conditions: changes in ellipticity at 218 nm (β-sheet conformation); peptide:compound 1:10. The method, then: Circular dichroism analysis was conducted to confirm the activity of certain therapeutic compounds in preventing or inhibiting IAPP-associated fibril formation in accordance with the present disclosure by determining the presence or absence of β-sheet conformation.
The assay, a co-incubation procedure, examines the ability of a compound or substance to inhibit the assembly of amyloid fibrils, e.g., to test for the presence of the amyloidotic b-sheet conformation in the presence of soluble IAPP. Samples are run in the presence and absence (i.e., water alone) of buffering agent, which is done to determine if competitive effects are seen with the ionic buffer (usually phosphate).
Add components used at a molar ratio of 1:10 [peptide:compound]; add 10 μL of 10 mg/mL IAPP stock solution (final 100 μg peptide) to the aqueous solution containing compound to a final volume of 400 μl. The pH of the final assay solution is measured to ensure there is no fluctuation and the spectrum is accumulated using the parameters as shown above.
Add desired amount of compound to achieve a 1:10 molar ratio in 10 mM phosphate buffer, pH 7. Add 10 μL of 10 mg/mL IAPP stock solution (final peptide 100 μg) to the phosphate buffered solution containing the compound and bring to a final volume of 400 μL. The pH of the final assay solution is measured to ensure there is no fluctuation and the spectrum is accumulated using the parameters as shown above.
In both assays, a control sample is run with each test group. This control contains peptide only in water or buffer at a similar final volume of 400 μl. Spectra for the control are collected initially (first run) and at the end of the test (final run) to ensure that the peptide has not undergone extensive aggregation during the course of the assay. Spectra for the controls are used to compare with the measurements obtained with the treated samples.
Make fresh 1 mg/mL stock solution of IAPP in 10 mM phosphate buffer, pH 7. Add desired amount of compound to achieve a 1:10 molar ratio in 10 mM phosphate buffer, pH 7. Incubate for 3 days at room temperature. Make up to final volume of 400 μL with 10 mM phosphate buffer, pH 7. The pH of the final assay solution is measured to ensure there is no fluctuation and the spectrum is accumulated using the parameters as shown above. A similar control is run for comparative purposes.
Plots of the spectra (control and treated) are individually assembled and the changes in ellipticity at 218 nm are examined. This minimum is directly correlated with the amount of peptide in β-sheet conformation present in the sample. Changes in either a positive or negative direction are noted and a relative value (“active” or “not active”) assigned to the compound as a measure of activity.
For orientation: Circular dichroism is the unequal absorption of left and right circularly polarised light.

Assay [2] has as its target T1, IAPP. The assay is described as follows: Rate of amyloid fibril formation by Thioflavine T spectroscopy (Example 1). As to conditions: Thioflavine T fluorescence. As for the experimental part:
Determination of the Rate of Amyloid Fibril Formation by Thioflavine T Spectroscopy
Detection of ThT fluorescence can be used as a sensitive assay for amyloid fibril formation under different conditions. This assay has been used in experiments to determine the effects of compounds of the invention on amyloid fibril formation.
Human IAPP was dissolved in 40% trifluoroethanol and freeze-dried into conveniently-sized aliquots. IAPP was prepared immediately before the measurements by dissolving in 40% 1,1,1,3,3,3-hexafluoro-2-propanol (HFIP) in water to maintain the peptide in alpha helical conformation and soluble. A stock solution of ThT (2.5 mM) was prepared, 7.9 mg in 10 mL Tris-HCl pH 7.0 and filtered (0.22 μm). Solutions were kept in the dark until use. Fluorescence was examined at 440 nm excitation (slit 5 nm), and emission at 482 nm (slit 10 nm) with stirring. […] of ThT stock (final concentration 62.5 μM) was added to peptide sample and made up to 1 mL in the cuvette. The sample was stirred for 5 min. before taking a reading. Measurements were made at an initial time point (5 min. from sample preparation), at intervals over the next 4-6 h and after overnight incubation at room temperature.

Assay [3] concerns the target T1, IAPP. The assay is described as follows: Rate of fibril formation by Thioflavine T spectroscopy (Example 5). As to conditions: thioflavine T assay. As for the experimental part:
Determination of the Rate of Fibril Formation by Thioflavine T Spectroscopy
This can be used as a sensitive assay for fibril formation under different conditions. This assay has been used in experiments to determine the effects of some candidate compounds on fibril formation.
Human IAPP was dissolved in 40% Trifuoroethanol and freeze dried into convenient sized aliquots. IAPP (1 mg/ml) was prepared immediately before the measurement by dissolving in 40% HFIP in water to maintain the peptide in alpha confirmation and soluble. A stock solution of Thioflavine T (2.5 mM) was prepared 7.9 mg in 10 ml Tris pH 7.0 and filtered (0.22 micron). Solutions were kept in dark until use. Fluorescence was examined at 440 nm excitation (slit 5 nm), and Emission at 482 nm (Slit 10 nm) with stirring. Twenty five microlitres of Th-T stock (final conc 62.5 μM) was added to peptide sample (8 μg/ml) and made up to 1 ml in the cuvette. The sample was stirred for 5 min before taking a reading. Measurements were made at an initial time points (5 mins from sample preparation) and at intervals over the next 4-6 h after overnight incubation at room temp with and without candidate compound (vi) and a compound known to accelerate fibril formation, polyvinylsulphonate.

A further assay concerns the target T2, IAPP fibrils (Homo sapiens, UniProt P10997).
T2 sequence (P10997 34-70 limits assumed): T1 sequence (P10997 34-70 limits assumed)
The assay is described as follows: Morphological characteristics of IAPP fibrils by transmission electron microscopy (Example 10). As to conditions: incubated 48 h, compared with IAPP alone. The method, then:
Morphological Characteristics of IAPP Fibrils Formed in Mixtures with Candidate Compounds.
IAPP prepared as in Example 3 was incubated with candidate compounds for 48 h Samples were then examined by transmission electron microscopy for the presence of fibrils. […] Long and short unbranching fibrils were present.

The next assay addresses T3, Human IAPP (hIAPP) (Homo sapiens, UniProt P10997).
T3 construct: Human IAPP (hIAPP) was synthesised by solid state synthesis (Advanced Biotechnologies, UK); purchased Advanced Biotechnologies, UK; host or cells: chemical solid-phase synthesis
T3 sequence (P10997 34-70 limits assumed): T1 sequence (P10997 34-70 limits assumed)
The assay is described as follows: ELISA assay for quantitative determination of fibril formation (Example 4). As for the experimental part:
ELISA Assay for Quantitative Determination of Fibril Formation
Human IAPP (hIAPP) was synthesised by solid state synthesis (Advanced Biotechnologies, UK). Human IAPP forms fibrils immediately in aqueous media. Aliquots of IAPP in water (800 μg/ml) were stored frozen at −20° C. until use. These samples contain small numbers of fibrils visible with electron microscopy (em).
Two sets of samples containing IAPP (20 μM) with or without inhibitors (at a molar ratio of 10:1 with IAPP, (20 μM)) were prepared on day 1 in Tris buffer. One set was centrifuged, the supernatant removed and frozen immediately at −20° C. (Time zero time point). The other set was incubated overnight at room temp with shaking (time 24 h time point). On day 2 these samples were spun and supernatant removed to determine the proportion of non-fibrillar IAPP.
To assay IAPP in the supernatant both sets of samples were serially diluted in bicarbonate coating buffer, added to ELISA wells and incubated overnight. Plates were washed in phosphate buffer containing Tween (PBS/Tw)×3. Diluted antiserum raised against human IAPP was incubated on the plate for 90 minutes at 37° C. Following washing in PBS/Tw, alkaline phosphatase conjugated anti-rabbit antisera was incubated for 90 mins. Following washing in PBS/Tw, alkaline phosphate substrate was added and colour allowed to develop for 30 mins. Optical density was read at 405 nm.
Data from all samples was calculated to determine changes of IAPP concentration in the supernatant induced by the candidate substance immediately (i.e. at time zero) or after 24 h incubation. Data in FIG. 1 is expressed as the proportion of non-fibrillar IAPP in the supernatant of test samples compared to control at both time points.
In general terms: An ELISA detects its analyte on a solid surface through an enzyme-linked reagent.

As to `O=C(O)C(F)(F)C(F)(F)C(F)(F)C(=O)O` [vi, Hexafluoroglutaric acid], the result on IAPP [1] was Active. Further, the IAPP-associated fibril assembly result on IAPP [2] is on record as “inhibit or prevent IAPP-associated fibril assembly”. Also, the “time for which the reduced fluorescence level was stable” value on IAPP [3] was “up to 15 hrs”. In addition, on IAPP [3] (compared with IAPP alone), the fluorescence units entry is given as “reduced fluorescence below the level recorded for IAPP alone”. The “presence and morphology of fibrils” value at IAPP fibrils was “contained fewer fibrils which were apparently short and long and not aggregated”. Besides, the “proportion of non-fibrillar IAPP in the supernatant” value on Human IAPP (hIAPP) (IAPP 20 μM, inhibitor:IAPP molar ratio 10:1, compared to control) is given as “increase the proportion of non-fibrillar IAPP in the supernatant”. The “time point at which the increase of non-fibrillar IAPP was greater” value on Human IAPP (hIAPP) (time zero versus time 24 h) is “greater at time zero”.
